Experimental data from patent US10087209B2, “Antiviral compounds, a process for their preparation, and their use for treating viral infections” (KU LEUVEN RESEARCH & DEVELOPMENT, priority 2015, dated 2018).
Structures can show the parent of a compound that is named as a salt.

What was measured:
[1] = test system: HBV wild-type strain ayw1 in HepG2 2.2.15 cells; test: Primary anti-HBV assay: extracellular HBV DNA copy number by real-time qPCR (TaqMan); format: cell-based, Hepatitis B virus
Experimental: (§1) The primary anti-HBV assay is performed as previously described (Korba, B F and Milman, G. A cell culture assay for compound which inhibit hepatitis B virus replication. Antiviral Res. 1991, 15, 217-228; and Korba, B F and Gerin, J L. Use of a standardized cell culture assay to assess activities of nucleoside analogs again hepatitis B virus replication. Antiviral Res. 1992, 19, 55-70) with modifications to use real-time qPCR (TaqMan) to measure extracellular HBV DNA copy number associated with virions released from HepG2 2.2.15 cells. The HepG2 2.2.15 cell line is a stable human hepatoblastoma cell line that contains two copies of the HBV wild-type strain ayw1 genome and constitutively produces high levels of HBV. Antiviral compounds blocking any late step of viral replication such as transcription, translation, pregenome encapsidation, reverse transcription, particle assembly and release can be identified and characterized using this cell line.
(§2) Briefly, HepG2 2.2.15 cells are plated in 96-well microtiter plates at 1.5×10^4 cells/well in Dulbecco's Modified Eagle's Medium supplemented with 2% FBS, 380 μg/mL G418, 2.0 mM L-Glutamine, 100 units/mL Penicillin, 100 μg/mL Streptomycin, and 0.1 mM non-essential amino acids. Only the interior wells are utilized to reduce “edge effects” observed during cell culture; the exterior wells are filled with complete medium to help minimize sample evaporation. After 16-24 hours the confluent monolayer of HepG2 2.2.15 cells is washed and the medium is replaced with complete medium containing various concentrations of a test compound in triplicate Lamivudine (3TC) is used as the positive control, while media alone is added to cells as a negative control (virus control, VC). Three days later the culture medium is replaced with fresh medium containing the appropriately diluted test compounds. Six days following the initial administration of the test compound, the cell culture supernatant is collected, treated with pronase and then used in a real-time quantitative TaqMan qPCR assay. The PCR-amplified HBV DNA is detected in real-time by monitoring increases in fluorescent signal that result from the exonucleolytic degradation of a quenched fluorescent probe molecule that hybridizes to the amplified HBV DNA. For each PCR amplification, a standard curve is simultaneously generated using dilutions of purified HBV DNA. Antiviral activity is calculated from the reduction in HBV DNA levels (EC50 & EC90 values determined). A tetrazolium dye (MTS; 3-(4,5-dimethylthiazol-2-yl)-5-(3-carboxy-methoxyphenyl)-2-(4-sulfophenyl)-2H-tetrazolium; CellTiter®96 Reagent, Promega) uptake assay is then employed to measure cell viability, which is used to calculate toxicity (CC50). The Selectivity Index (SI50) is calculated as CC50/IC50.

[2] = MTS tetrazolium dye uptake cell viability assay (primary assay); format: cell-based, human; settings: human, HepG2 2.2.15 cells
Experimental: as §2

HIV-2 = settings: cited from earlier work
[3] = read-out: CC50 (cellular cytotoxicity); cited from earlier work
HIV-1 = settings: cited from earlier work
[4] = test system: HBV wild-type strain ayw1 in HepG2 2.2.15 cells; test: microbe, parasite or virus in culture; format: cell-based; settings: Hepatitis B virus
Experimental: as §1
Briefly, HepG2 2.2.15 cells are plated in 96-well microtiter plates at 1.5×10^4 cells/well in Dulbecco's Modified Eagle's Medium supplemented with 2% FBS, 380 μg/mL G418, 2.0 mM L-Glutamine, 100 units/mL Penicillin, 100 μg/mL Streptomycin, and 0.1 mM non-essential amino acids. Only the interior wells are utilized to reduce “edge effects” observed during cell culture; the exterior wells are filled with complete medium to help minimize sample evaporation. After 16-24 hours the confluent monolayer of HepG2 2.2.15 cells is washed and the medium is replaced with complete medium containing various concentrations of a test compound in triplicate Lamivudine (3TC) is used as the positive control, while media alone is added to cells as a negative control (virus control, VC). Three days later the culture medium is replaced with fresh medium containing the appropriately diluted test compounds. Six days following the initial administration of the test compound, the cell culture supernatant is collected, treated with pronase and then used in a real-time quantitative TaqMan qPCR assay. The PCR-amplified HBV DNA is detected in real-time by monitoring increases in fluorescent signal that result from the exonucleolytic degradation of a quenched fluorescent probe molecule that hybridizes to the amplified HBV DNA. For each PCR amplification, a standard curve is simultaneously generated using dilutions of purified HBV DNA. Antiviral activity is calculated from the reduction in HBV DNA levels (EC50 & EC90 values determined). A tetrazolium dye (MTS; 3-(4,5-dimethylthiazol-2-yl)-5-(3-carboxy-methoxyphenyl)-2-(4-sulfophenyl)-2H-tetrazolium; CellTiter®96 Reagent, Promega) uptake assay is then employed to measure cell viability, which is used to calculate toxicity (CC50). The Selectivity Index (SI50) is calculated as CC50/IC50. […]

in vitro = format: cell-based; settings: human; HepG2 2.2.15 cells, secondary assay
Experimental: Briefly, HepG2 2.2.15 cells are plated in 96-well microtiter plates at 1.5×10^4 cells/well in Dulbecco's Modified Eagle's Medium supplemented with 2% FBS, 380 μg/mL G418, 2.0 mM L-Glutamine, 100 units/mL Penicillin, 100 μg/mL Streptomycin, and 0.1 mM non-essential amino acids. Only the interior wells are utilized to reduce “edge effects” observed during cell culture; the exterior wells are filled with complete medium to help minimize sample evaporation. After 16-24 hours the confluent monolayer of HepG2 2.2.15 cells is washed and the medium is replaced with complete medium containing various concentrations of a test compound in triplicate Lamivudine (3TC) is used as the positive control, while media alone is added to cells as a negative control (virus control, VC). […] Six days following the initial administration of the test compound, the cell culture supernatant is collected, treated with pronase and then used in a real-time quantitative TaqMan qPCR assay. The PCR-amplified HBV DNA is detected in real-time by monitoring increases in fluorescent signal that result from the exonucleolytic degradation of a quenched fluorescent probe molecule that hybridizes to the amplified HBV DNA. […] Antiviral activity is calculated from the reduction in HBV DNA levels (EC50 & EC90 values determined). […] The Selectivity Index (SI50) is calculated as CC50/IC50. […]

HepG2 2.2.15 cells = test: MTS tetrazolium dye uptake cell viability assay (primary assay); format: cell-based, human
Experimental: as §2

[5] = Hepatitis B virus, HepG2 2.2.15, 144 h
[6] = Hepatitis B virus, 144 h, reduction in extracellular HBV DNA, HepG2 2.2.15 cells, six days, read-out: EC50
[7] = Hepatitis B virus, 144 h, reduction in extracellular HBV DNA, HepG2 2.2.15 cells, six days, read-out: EC90

For CC(C)OC(=O)[C@H](C)NP(=O)(CO[C@H]1CO[C@@H](n2cnc3c(N)ncnc32)C1)Oc1ccccc1 (some centres unmarked) [compound 17], the EC50 [1, 5] was 0.03 µM, the EC90 [1, 5] was > 10 µM and the CC50 at 6 days [2] was > 10 µM.

In the case of Nc1ncnc2c1ncn2[C@H]1C[C@@H](OCP(=O)(O)O)CO1 [PMDTA, 1′α-(Adenin-9-yl)-2′-deoxy-3′-O-phosphonomethyl-L-threose triethylammonium salt, reference compound], the EC50 [1, 6] is given as 0.5 µM, the EC90 [1, 7] is given as > 100 µM and the EC50 (HIV-2; read-out: EC50 value against HIV-2) is given as 2.53 µM. For the same compound, the CC50 at 6 days [2] was > 100 µM, the CC50 [3] was > 316 µM and the EC50 (HIV-1; read-out: EC50 value against HIV-1) was 2.53 µM.

With CC(C)CCOC(=O)C[C@H](NP(=O)(CO[C@H]1CO[C@@H](n2cnc3c(N)ncnc32)C1)Oc1ccccc1)C(=O)OCCC(C)C (some centres unmarked) [compound 18] the EC50 [1, 5] was 0.01 µM, the EC90 [1, 5] was 0.98 µM and the EC50 ([4]; HepG2 2.2.15) was < 0.01 µM. It also gave an EC90 ([4]; HepG2 2.2.15) of 0.36 µM, a CC50 at 6 days (in vitro) of 35.2 µM and a CC50 at 6 days [2] of 55.5 µM.

With Cc1cn([C@H]2C[C@@H](OCP(=O)(N[C@@H](CC(=O)OCCC(C)C)C(=O)OCCC(C)C)Oc3ccccc3)CO2)c(=O)[nH]c1=O (some centres unmarked) [compound 21] the EC50 [1, 5] was 0.25 µM, the EC90 [1, 5] was > 10 µM and the CC50 at 6 days [2] was 59.6 µM.

With CC(C)OC(=O)[C@H](C)NP(=O)(CO[C@H]1CO[C@@H](n2cnc3c(=O)[nH]c(N)nc32)C1)Oc1ccccc1 (some centres unmarked) [compound 40] the EC50 [1, 5] was > 100 µM, the EC90 [1, 5] was > 100 µM and the CC50 at 6 days [2] was > 100 µM.

With CC(C)OC(=O)[C@H](C)NP(=O)(COC1COC(n2cnc3c(=O)[nH]c(N)nc32)C1)Oc1ccccc1 (stereo partly drawn) [compound 41, 1′α-(Guanin-9-yl)-2′-deoxy-3′-O—{[N-(isopropyl-L-alaninate)](phenoxy)-methylphosphonoamidate}-L-threose] the EC50 ([1]; reduction in extracellular HBV DNA, HepG2 2.2.15 cells, six days, read-out: EC50) was > 100 µM, the EC90 ([1]; reduction in extracellular HBV DNA, HepG2 2.2.15 cells, six days, read-out: EC90) was > 100 µM and the CC50 (HepG2 2.2.15 cells) was > 100 µM.

With Nc1ccn([C@@H]2CS[C@H](CO)O2)c(=O)n1 [3TC (Lamivudine), Lamivudine, reference compound] the EC50 [1, 6] was 0.03 µM, the EC90 [1, 7] was > 2 µM and the EC50 ([4]; reduction in intracellular HBV DNA, HepG2 2.2.15 cells, read-out: EC50) was < 0.01 µM. The EC90 ([4]; reduction in intracellular HBV DNA, HepG2 2.2.15 cells, read-out: EC90) was > 2 µM and the CC50 at 6 days [2] was > 2 µM.

For Cc1cn([C@H]2C[C@@H](OCP(=O)(N[C@@H](C)C(=O)OC(C)C)Oc3ccccc3)CO2)c(=O)[nH]c1=O (some centres unmarked) [compound 20], the EC50 [1, 5] was 0.26 µM, the EC90 [1, 5] was > 10 µM and the CC50 at 6 days [2] was > 100 µM.

With CC(C)OC(=O)[C@H](C)NP(=O)(CO[C@H]1CO[C@@H](n2ccc(N)nc2=O)C1)Oc1ccccc1 (stereo partly drawn) [compound 32, 1′α-(Cytosin-1-yl)-2′-deoxy-3′-O—{[N-(isopropyl-L-alaninate)](phenoxy)-methylphosphonoamidate}-L-threose] the EC50 [1, 5] was 47.9 µM, the EC90 [1, 5] was > 100 µM and the CC50 at 6 days [2] was > 100 µM.

In the case of CCCOC(=O)[C@H](Cc1ccccc1)NP(=O)(CO[C@H]1CO[C@@H](n2cnc3c(=O)[nH]c(N)nc32)C1)N[C@@H](Cc1ccccc1)C(=O)OCCC [compound 39], the EC50 [1, 6] is reported as > 100 µM, the EC90 [1, 7] is reported as > 100 µM and the CC50 at 6 days [2] is reported as > 100 µM.

For Cc1cn([C@H]2C[C@@H](OCP(=O)(O)O)CO2)c(=O)[nH]c1=O [PMDTT, 1′α-(Thymin-1-yl)-2′-deoxy-3′-O-phosphonomethyl-L-threose triethylammonium salt, reference compound], the EC50 [1, 6] is listed as 40.2 µM, the EC90 [1, 7] is listed as > 100 µM and the IC50 (HIV-2; read-out: IC50 value against HIV-2) is listed as 6.59 µM. The CC50 at 6 days [2] was > 100 µM, the CC50 [3] was > 343 µM and the IC50 (HIV-1; read-out: IC50 value against HIV-1) was 6.59 µM.
